# Measured values reported in patent publication US20260365692A1, “COMPOSITIONS COMPRISING PROTEINS DISSOLVED IN FLUORINATED SOLVENTS, AND METHODS OF MAKING AND USING THE SAME” (priority 2022, published 2026).
# How the values were obtained:
# rabbit serum IgG = assay: Circular dichroism with PFNA, rabbit serum IgG; conditions: 0.001-1 mM PFNA
# From the text: (§1) FIGS. 14A-14L depict circular dichroism spectra of Hb (FIG. 14A), GFP (FIG. 14B), BSA (FIG. 14C), β-Gal (FIG. 14D), rabbit serum IgG (FIG. 14E), transferrin (FIG. 14F), and urease (FIG. 14G) in the absence (black line) or presence (dashed lines) of PFNA. Increasing dash sequence indicated higher concentration of PFNA. FIG. 14H: Change in molar ellipticity at 216 nm (Δθ216) of PFNA-treated proteins, relative to native controls, as a function of increasing ligand concentration. FIG. 14I: Percentage change in secondary structural motifs of Hb, β-Gal and IgG between the native protein and 1 mM PFNA treated samples. β-sheet structures were further differentiated into parallel and antiparallel conformations. Hb, β-Gal and IgG were prioritized for analysis based on their significant spectral shift in the presence of 1 mM PFNA. FIGS. 14J-14L: Sensograms for BSA (FIG. 14J), β-gal (FIG. 14K), and IgG (FIG. 14L) showing relative response (R.U.) at 10, 25, 50, 75, and 100 μM.
# To explore PFNA-mediated changes in protein structure, dose-response circular dichroism (CD) studies were performed (FIG. 14A-14G). […] Remarkably, these structural changes endured even at sub-stoichiometric PFNA:protein ratios (see 0.001 mM PFNA in […]; protein concentration was constant at 0.01 mM).
# IgG = assay: Surface plasmon resonance, IgG; assay type: binding, rabbit; conditions: after reference correction
# From the text: as §1
# To test this assertion, PFNA binding to three exemplary proteins, BSA, β-Gal and IgG, was studied via isothermal titration calorimetry (ITC) and surface plasmon resonance (SPR) techniques. […] SPR analysis yielded similar results, with sensorgrams (FIGS. 14J-14L) that diverged from a simple 1:1 ligand-protein model. […]
# eGFP-PC9 lung cells = assay: Imaging of eGFP-PC9 cells with PFNA; assay type: cell-based, human; conditions: PFNA-treated cells
# Procedure: FIG. 21 depicts confocal micrographs of eGFP-PC9 cells in the absence (top) and presence (bottom) of PFNA.
# FIG. 22 depicts an analysis of average cellular fluorescence (in relative fluorescence units, RFU) for cells treated without/with PFNA for 1, 2 and 5 hours. Statistical significance was determined using unpaired t-test, with n.s.=not significant, * p<0.05, ** p<0.01 and *** p<0.001.
# FIG. 23 depicts analysis of cellular fluorescent area (in relative area units, RAU) for cells treated without/with PFNA for 1, 2 and 5 hours. Statistical significance was determined using unpaired t-test, with n.s.=not significant, * p<0.05, ** p<0.01 and *** p<0.001.
# Imaging studies were performed to interpret the effect of PFNA exposure on the transport of endogenous proteins in cells. For these experiments, stably transfected eGFP-PC9 lung cells were prepared to track the time dependent sub-cellular localization of eGFP as a model protein target (FIGS. 21, […]).
# BSA = BSA (Bos taurus, UniProt P02769); assay: FTIR of BSA eluted from PFOc into PBS; design: species or system bovine; conditions: dispersed BSA extracted from PFOc into PBS
# Chain of BSA (P02769 25-607): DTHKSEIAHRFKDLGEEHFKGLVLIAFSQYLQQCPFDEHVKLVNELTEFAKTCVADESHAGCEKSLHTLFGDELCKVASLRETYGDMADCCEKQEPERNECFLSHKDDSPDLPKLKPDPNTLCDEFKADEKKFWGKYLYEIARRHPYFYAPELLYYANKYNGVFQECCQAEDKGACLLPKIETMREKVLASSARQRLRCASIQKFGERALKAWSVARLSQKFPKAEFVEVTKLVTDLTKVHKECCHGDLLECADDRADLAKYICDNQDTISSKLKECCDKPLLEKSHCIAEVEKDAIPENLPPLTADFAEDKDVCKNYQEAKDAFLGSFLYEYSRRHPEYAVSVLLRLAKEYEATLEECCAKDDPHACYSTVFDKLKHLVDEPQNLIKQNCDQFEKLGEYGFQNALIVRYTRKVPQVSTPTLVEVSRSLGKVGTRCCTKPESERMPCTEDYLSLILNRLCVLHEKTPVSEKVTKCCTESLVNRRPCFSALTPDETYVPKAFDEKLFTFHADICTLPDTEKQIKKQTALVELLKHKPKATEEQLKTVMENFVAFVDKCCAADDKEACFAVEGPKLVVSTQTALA
# Procedure: FIG. 47 depicts stacked FTIR spectra of PD-7, BSA and the PD-7:BSA complex after elution into PBS.
# To test this assertion, Fourier transform infrared (FTIR) spectroscopy was performed on BSA samples following extraction of the PD-7 dispersed protein from PFOc into a physiologic buffer. Selected model protein BSA was diluted to […], and PFNA was diluted to 2 mM in PBS. The intermolecular interactions were initiated by adding an equal amount of BSA and PFNA samples into a centrifuge tube. After 1-hour incubation, samples were frozen at −80 °C, and lyophilize overnight to remove water. FTIR spectrometry was then performed on powdered samples using LN-MCT detector (4000-800 cm-1, backward output). Data is represented by average+−SD of wavenumber among replicates depicting corresponding characteristic bonds. An equal volume of PBS was added to the BSA:PD-7 sample in PFOc, and vortexing the phase separated mixture for ~2 seconds.
# proteinase K = assay: β-Gal activity after proteinase K exposure; assay type: physicochemical; conditions: 24 hours
# From the text: (§2) FIGS. 54A-54C depict the relative activity of the β-Gal protein dispersed in PBS or PFOc solvents without and with contamination by (FIG. 54A) proteinase K, (FIG. 54B) bleach or (FIG. 54C) hydrochloric acid. Data shown as average±s.d. of n=3 technical replicates. Statistical significance between conditions is indicated by a line using unpaired Student's t-test with n.s.=not significant, * p<0.05, ** p<0.01, and *** p<0.001.
# An equal volumetric amount of β-Gal and proteinase K stocks were mixed and incubated together for 24 hours. The remaining active β-Gal was evaluated by adding ONPG substrate diluted in PBS at 4 mg/mL directly to the samples. This action eluted β-Gal from PFOc solvent and immediately starting ONPG conversion without further β-Gal disruption from residue proteinase K that was also eluted into aqueous buffer. The enzymatic activity was calculated from measuring absorbance (420 nm) after 15-minute conversion. […] A likely explanation for this is that the proteinase K protein is also coated by the PD-7 additive after addition to the PFOc solvent, leading to its segregation from the co-dispersed β-Gal protein.
# [1] = β-Gal activity after hydrochloric acid exposure; assay type: physicochemical; conditions: β-Gal in PFOc
# Procedure: as §2
# Here, stock of lyophilized β-Gal was prepared then dispersed in PBS or PFOc. A small volumetric quantity (1% v/v) of 10% bleach was added to the protein samples. Immediately, an equal volume of PBS containing 4 mg/mL ONPG substrate was added to the sample and incubated for 5 minutes to allow for complete substrate conversion. Last, absorbance was taken at 420 nm on the eluted samples, and relative activity was calculated by normalizing absorbance of converted ONPG in oxidizer-treated samples against their corresponding untreated group. […] Here, stock of lyophilized B-Gal was prepared then dispersed in PBS or PFOc. A small volumetric quantity (4% v/v) of 0.1 M HCl was added to the protein samples. After 30 seconds incubation, PBS containing 4 mg/mL ONPG was added to each of the samples to elute and start substrate conversion. After 3-minute conversion, the eluted samples were retrieved, and absorbance was read at 420 nm. […]
Molecule,"CD structural change, rabbit serum IgG (rabbit serum IgG)",SPR response (IgG),intracellular protein localization (eGFP-PC9 lung cells),eGFP expression (eGFP-PC9 lung cells; particularly 1 hour),dispersant spectral feature after extraction into physiologic buffer/PBS (BSA),β-Gal activity in presence of proteinase K (proteinase K; PFOc formulation),β-Gal activity in presence of proteinase K (proteinase K; dissolved in PBS),β-Gal activity versus PBS controls ([1]; HCl),"loss in functionality ([1]; HCl (4% v/v of 0.1 M), few minutes) [%]"
"O=C(O)C(F)(F)C(F)(F)C(F)(F)C(F)(F)C(F)(F)C(F)(F)C(F)(F)C(F)(F)F [Compound 7, perfluoronanonic acid]",marked increase in β-sheet content,negative responses,remained relatively unchanged,significant reduction,showed the presence of C—F stretching vibrations (1500-1000 cm-1),,,,
"β-Gal: β-Galactosidase (β-Gal), dissolved in PBS/saline or dispersed in PFOc",,,,,,no statistically significant change in activity,completely inactivated,statistically higher than that of PBS controls,≥ 50
